Assay results: US20250049828A1, “PHARMACEUTICAL COMPOSITION FOR TREATING TUMORS AND USE” (INXMED (NANJING) CO., LTD., priority 2021, published 2025)

What was measured:
[1] = tested on: ovarian cancer cells SK-OV-3; assay: CCK8 cell viability / cell killing curve; format: cell-based; conditions: Homo sapiens, SK-OV-3, drug alone, 72 hours
Experimental: A 96-well cell plate was plated with 5000 SK-OV-3 cells/well. After 24 hours, a drug with a maximum concentration of 20 μM was added and diluted with a 3-fold gradient dilution to set a total of 9 concentrations, with the lowest concentration being […]. After the drug and cells were co-incubated for 72 hours, 10 μL of CCK8 solution was added to each well, and the plate was incubated in a 37° C. and 5% carbon dioxide incubator for 2 hours. Then, a microplate reader was used for reading with a set absorbance wavelength of 450 nm. The values read were compared with the DMSO control group and plotted using Graphpad 8.0.
A 96-well cell plate was plated with 5000 SK-OV-3 cells/well. […] Adriamycin at these dosages was combined with 3 μM IN10018. After 72 hours of co-culture with the cells, cell viability was detected using CCK8 method. Graphpad 8.0 was used for plotting.
A 96-well cell plate was plated with 5000 SK-OV-3 cells/well. […] Adriamycin at these dosages was combined with 3 μM Defactinib. After 72 hours of co-culture with the cells, cell viability was detected using CCK8 method. Graphpad 8.0 was used for plotting.

CT26 cells = assay: Microscope observation and flow cytometry of CRT and Annexin-V positive cells; format: cell-based, mouse; conditions: IN10018 5 μM, Adriamycin 1 μM, alone or combined, 48 hours
Experimental: Then the cells were collected for flow analysis.
The culture conditions were 37° C. and 5% CO2.

IFN-γ = assay: ELISA of IFN-γ in serum of CT26 tumor-bearing mice; format: in vivo, BALB/c mice; conditions: IN10018 25 mg/kg PO QD × 8, Doxil 3 mg/kg i.v. QW × 2; blood 24 hours after the second administration of Doxil; n=5
Experimental: (§1) BALB/c mice (from Shanghai Lingchang Biotechnology Co., Ltd.) were used to construct the CT26 tumor cell model. When the tumor volume reached about 40 to 60 mm^3, the mice were randomly divided into groups according to the tumor volume and administered.
(§2) 24 hours after the second administration of Doxil, blood was collected from the orbit of four groups of animals. The blood was placed in a collection tube without anticoagulant and left standing to naturally coagulate at room temperature for 30 to 60 minutes. When the blood coagulated, the blood was centrifuged at 1000 rpm, 4° C. for 10 minutes. The upper serum was transferred to a new collection tube and stored in a −80° C. freezer.

Granzyme B = assay: ELISA of Granzyme B in serum of CT26 tumor-bearing mice; format: in vivo, BALB/c mice; conditions: IN10018 25 mg/kg PO QD × 8, Doxil 3 mg/kg i.v. QW × 2; blood 24 hours after the second administration of Doxil; n=5
Experimental: as §1, §2

[2] = tested on: FAK and phosphorylated FAKY397; assay: FAK knockdown efficiency by western blot; format: cell-based; conditions: 50 nM FAKsiRNA, SK-OV-3 cells, western blot 72 hours after transfection
Experimental: SK-OV-3 cells were used as the research object, and Lipofectamine 3000 was used to transfect the cells with 50 nM FAKsiRNA. After the assay, proteins were collected to detect the expression of FAK and phosphorylated FAKY397.
Lipofectamine 3000 was used as a transfection reagent. Downstream combination and ICD biomarker assays can be performed 24 hours after the transfection. 72 hours after the transfection, SK-OV-3 cell proteins were collected, and western blot was performed to detect the amount of phosphorylated FAKY397, FAK and alpha tubulin.

Row | Compound | IC50 [1] | cell-killing effect observed under a microscope (CT26 cells) | IFN-γ protein concentration in serum (IFN-γ) | Granzyme B protein concentration in serum (Granzyme B) | knockdown effect on phosphorylated FAKY397 and total FAK proteins [2]
1 | COc1cccc2c1C(=O)c1c(O)c3c(c(O)c1C2=O)C[C@@](O)(C(=O)CO)C[C@@H]3O[C@H]1C[C@H](N)[C@H](O)[C@H](C)O1 [Adriamycin, doxorubicin, reference compound] | 0.3 µM | had cell-killing effect | – | – | –
2 | COc1cc(C(=O)NC2CCN(C)CC2)c(F)cc1Nc1ncc(C(F)(F)F)c(Oc2cccc3c2C(=O)N(C)C3)n1 [IN10018] | 10 µM | in good condition | 367.24 ± 7.34 pg/mL | 50.48 ± 53.08 pg/mL | –
3 | FAKsiRNA: small interfering RNA for FAK knockdown, GenePharma; GGGCAUCAUUCAGAAGAUATT / UAUCUUCUGAAUGAUGCCCTT (chemistry not given here) | – | – | – | – | significant knockdown effect
